Source: US9326973B2, “Hepatitis C virus inhibitors” (priority 2012, dated 2016)

System: HCV replicon, genotype-1a variant with glutamine 30 changed to glutamate in the NS5A protein
Assay: microbe, parasite or virus in culture
Assay type: cell-based, HCV genotype 1a
Details: HCV replicon genotype 1a Q30E (Q→E) variant; test compound titrated with an NS5A-targeting compound (BMS-790052 fixed at 200 nM); ranking of synergist activity
Procedure, shortened: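 Synergy was assessed by combining several fixed amounts of an NS5A-targeting compound with a titration of the second compound of interest.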

Row | SMILES | Fold-Synergistic 1a (Q30E) [fold]
1 | CC(C)(C)[C@H](NC(=O)C(O)(C1CC1)C1CC1)c1nc(-c2ccc(-c3ccc(-c4c[nH]c([C@@H](NC(=O)C(O)(C5CC5)C5CC5)C(C)(C)C)n4)cc3)cc2)c[nH]1 [Compound P-169] | >100
2 | CC(C)(C)[C@H](NC(=O)[C@@]12CC[C@@](C)(C(=O)O1)C2(C)C)c1nc(-c2ccc(-c3ccc(-c4c[nH]c([C@@H](NC(=O)[C@@]56CC[C@@](C)(C(=O)O5)C6(C)C)C(C)(C)C)n4)cc3)cc2)c[nH]1 [Compound P-170] | >100
3 | CC(C)(C)[C@H](NC(=O)[C@@H]1CCC[C@@H]1O)c1nc(-c2ccc(-c3ccc(-c4c[nH]c([C@@H](NC(=O)[C@@H]5CCC[C@@H]5O)C(C)(C)C)n4)cc3)cc2)c[nH]1 [Compound P-171] | >100
4 | CC(C)(C)[C@H](NC(=O)C(F)(F)Sc1ccccc1)c1nc(-c2ccc(-c3ccc(-c4c[nH]c([C@@H](NC(=O)C(F)(F)Sc5ccccc5)C(C)(C)C)n4)cc3)cc2)c[nH]1 [Compound P-172] | >100
5 | CC(C)(C)[C@H](NC(=O)C1CCCCS1)c1nc(-c2ccc(-c3ccc(-c4c[nH]c([C@@H](NC(=O)C5CCCCS5)C(C)(C)C)n4)cc3)cc2)c[nH]1 (stereo partly shown) [Compound P-173] | >100
6 | CC(C)(NC1CCCCC1)C(=O)N[C@H](c1nc(-c2ccc(-c3ccc(-c4c[nH]c([C@@H](NC(=O)C(C)(C)NC5CCCCC5)C(C)(C)C)n4)cc3)cc2)c[nH]1)C(C)(C)C [Compound P-174] | >100
7 | CC(C)(C)NC(C)(C)C(=O)N[C@H](c1nc(-c2ccc(-c3ccc(-c4c[nH]c([C@@H](NC(=O)C(C)(C)NC(C)(C)C)C(C)(C)C)n4)cc3)cc2)c[nH]1)C(C)(C)C [Compound P-175] | >100
8 | CC(C)(C)[C@H](NC(=O)[C@@]1(C)CCCCO1)c1nc(-c2ccc(-c3ccc(-c4c[nH]c([C@@H](NC(=O)[C@@]5(C)CCCCO5)C(C)(C)C)n4)cc3)cc2)c[nH]1 [Compound P-176] | >100
9 | CC(C)(C)[C@H](NC(=O)C1(CO)CCCCO1)c1nc(-c2ccc(-c3ccc(-c4c[nH]c([C@@H](NC(=O)C5(CO)CCCCO5)C(C)(C)C)n4)cc3)cc2)c[nH]1 (stereo partly shown) [Compound P-177] | >100
10 | CC(C)(C)[C@H](NC(=O)C1(CF)CCCCO1)c1nc(-c2ccc(-c3ccc(-c4c[nH]c([C@@H](NC(=O)C5(CF)CCCCO5)C(C)(C)C)n4)cc3)cc2)c[nH]1 (stereo partly shown) [Compound P-178] | >100
11 | CC(C)(C)[C@H](NC(=O)C1(C(F)F)CCCCO1)c1nc(-c2ccc(-c3ccc(-c4c[nH]c([C@@H](NC(=O)C5(C(F)F)CCCCO5)C(C)(C)C)n4)cc3)cc2)c[nH]1 (stereo partly shown) [Compound P-179] | >100
12 | CC(C)(C)[C@H](NC(=O)C1(CO)CCCCO1)c1nc(-c2ccc(-c3ccc(-c4c[nH]c([C@@H](NC(=O)C5(CO)CCCCO5)C(C)(C)C)n4)cc3)cc2)c[nH]1 (stereo partly shown) [Compound P-180] | >100
13 | CC(C)(C)[C@H](NC(=O)C1(CO)CCCCO1)c1nc(-c2ccc(-c3ccc(-c4c[nH]c([C@@H](NC(=O)C5(CO)CCCCO5)C(C)(C)C)n4)cc3)cc2)c[nH]1 (stereo partly shown) [Compound P-181] | >100
14 | CC(C)(C)[C@H](NC(=O)C1(CO)CCCCO1)c1nc(-c2ccc(-c3ccc(-c4c[nH]c([C@@H](NC(=O)C5(CO)CCCCO5)C(C)(C)C)n4)cc3)cc2)c[nH]1 (stereo partly shown) [Compound P-182] | >100
15 | COCC1(C(=O)N[C@H](c2nc(-c3ccc(-c4ccc(-c5c[nH]c([C@@H](NC(=O)C6(COC)CCCCO6)C(C)(C)C)n5)cc4)cc3)c[nH]2)C(C)(C)C)CCCCO1 (stereo partly shown) [Compound P-183] | >100
16 | CC(C)[C@H](NC(=O)[C@@]1(C)CCCCO1)c1nc(-c2ccc(-c3ccc(-c4c[nH]c([C@@H](NC(=O)[C@@]5(C)CCCCO5)C(C)C)n4)cc3)cc2)c[nH]1 [Compound P-184] | >100
17 | O=C(N1CCC[C@H]1c1ncc(-c2ccc(-c3ccc(-c4cnc([C@@H]5CCCN5C(=O)C5(O)CCC(F)(F)CC5)[nH]4)cc3)cc2)[nH]1)C1(O)CCC(F)(F)CC1 [Compound P-185] | >100
18 | C[C@]1(C(=O)N2CCC[C@H]2c2ncc(-c3ccc(-c4ccc(-c5cnc([C@@H]6CCCN6C(=O)[C@@]6(C)CCC(F)(F)CO6)[nH]5)cc4)cc3)[nH]2)CCC(F)(F)CO1 [Compound P-186] | <10
19 | CC1([C@H](NC(=O)[C@@]2(C)CCCCO2)c2nc(-c3ccc(-c4ccc(-c5c[nH]c([C@@H](NC(=O)[C@@]6(C)CCCCO6)C6(C)CC6)n5)cc4)cc3)c[nH]2)CC1 [Compound P-187] | >100
20 | O=C(c1ccccc1)N1CCC[C@H]1c1ncc(-c2ccc(-c3ccc(-c4cnc([C@@H]5CCCN5C(=O)c5ccccc5)[nH]4)cc3)cc2)[nH]1 [Compound S-106] | <10

Row | SMILES | Fold-Synergistic 1a (Q30E) [fold]
21 | O=C(Cc1ccccc1)N1CCC[C@H]1c1ncc(-c2ccc(-c3ccc(-c4cnc([C@@H]5CCCN5C(=O)Cc5ccccc5)[nH]4)cc3)cc2)[nH]1 [Compound S-107] | <10
22 | CCC(=O)N1CCC[C@H]1c1ncc(-c2ccc(-c3ccc(-c4cnc([C@@H]5CCCN5C(=O)CC)[nH]4)cc3)cc2)[nH]1 [Compound S-108] | <10
23 | O=C(C1CC1)N1CCC[C@H]1c1ncc(-c2ccc(-c3ccc(-c4cnc([C@@H]5CCCN5C(=O)C5CC5)[nH]4)cc3)cc2)[nH]1 [Compound S-109] | <10
24 | O=C(CC1CC1)N1CCC[C@H]1c1ncc(-c2ccc(-c3ccc(-c4cnc([C@@H]5CCCN5C(=O)CC5CC5)[nH]4)cc3)cc2)[nH]1 [Compound S-110] | <10
25 | O=C([C@H]1CCCO1)N1CCC[C@H]1c1ncc(-c2ccc(-c3ccc(-c4cnc([C@@H]5CCCN5C(=O)[C@H]5CCCO5)[nH]4)cc3)cc2)[nH]1 [Compound S-111] | <10
26 | CC(=O)N1CCC[C@H]1c1ncc(-c2ccc(-c3ccc(-c4cnc([C@@H]5CCCN5C(C)=O)[nH]4)cc3)cc2)[nH]1 [Compound S-113] | <10
27 | O=C(c1ccccc1Oc1ccccc1)N1CCC[C@H]1c1ncc(-c2ccc(-c3ccc(-c4cnc([C@@H]5CCCN5C(=O)c5ccccc5Oc5ccccc5)[nH]4)cc3)cc2)[nH]1 [Compound S-114] | <10
28 | COC(=O)c1ccccc1C(=O)N1CCC[C@H]1c1ncc(-c2ccc(-c3ccc(-c4cnc([C@@H]5CCCN5C(=O)c5ccccc5C(=O)OC)[nH]4)cc3)cc2)[nH]1 [Compound S-115] | <10
29 | O=C(c1cccc(Oc2ccccc2)c1)N1CCC[C@H]1c1ncc(-c2ccc(-c3ccc(-c4cnc([C@@H]5CCCN5C(=O)c5cccc(Oc6ccccc6)c5)[nH]4)cc3)cc2)[nH]1 [Compound S-116] | <10
30 | O=C(c1ccc(-c2ccccc2)cc1)N1CCC[C@H]1c1ncc(-c2ccc(-c3ccc(-c4cnc([C@@H]5CCCN5C(=O)c5ccc(-c6ccccc6)cc5)[nH]4)cc3)cc2)[nH]1 [Compound S-117] | >10
31 | Cc1onc(-c2ccccc2)c1C(=O)N1CCC[C@H]1c1ncc(-c2ccc(-c3ccc(-c4cnc([C@@H]5CCCN5C(=O)c5c(-c6ccccc6)noc5C)[nH]4)cc3)cc2)[nH]1 [Compound S-118] | <10
32 | O=C(c1cccc2ccccc12)N1CCC[C@H]1c1ncc(-c2ccc(-c3ccc(-c4cnc([C@@H]5CCCN5C(=O)c5cccc6ccccc56)[nH]4)cc3)cc2)[nH]1 [Compound S-119] | >10
33 | O=C(c1cc2ccccc2[nH]1)N1CCC[C@H]1c1ncc(-c2ccc(-c3ccc(-c4cnc([C@@H]5CCCN5C(=O)c5cc6ccccc6[nH]5)[nH]4)cc3)cc2)[nH]1 [Compound S-120] | <10
34 | O=C(c1ccc2c(c1)OCO2)N1CCC[C@H]1c1ncc(-c2ccc(-c3ccc(-c4cnc([C@@H]5CCCN5C(=O)c5ccc6c(c5)OCO6)[nH]4)cc3)cc2)[nH]1 [Compound S-121] | <10
35 | O=C(c1cc2ccccc2o1)N1CCC[C@H]1c1ncc(-c2ccc(-c3ccc(-c4cnc([C@@H]5CCCN5C(=O)c5cc6ccccc6o5)[nH]4)cc3)cc2)[nH]1 [Compound S-122] | >10
36 | O=C(c1ccc2ccccc2n1)N1CCC[C@H]1c1ncc(-c2ccc(-c3ccc(-c4cnc([C@@H]5CCCN5C(=O)c5ccc6ccccc6n5)[nH]4)cc3)cc2)[nH]1 [Compound S-123] | >100
37 | O=C(c1cnc2ccccc2c1)N1CCC[C@H]1c1ncc(-c2ccc(-c3ccc(-c4cnc([C@@H]5CCCN5C(=O)c5cnc6ccccc6c5)[nH]4)cc3)cc2)[nH]1 [Compound S-124] | >10
38 | O=C(c1ccnc2ccccc12)N1CCC[C@H]1c1ncc(-c2ccc(-c3ccc(-c4cnc([C@@H]5CCCN5C(=O)c5ccnc6ccccc56)[nH]4)cc3)cc2)[nH]1 [Compound S-125] | <10
39 | O=C(c1cnc2ccccc2n1)N1CCC[C@H]1c1ncc(-c2ccc(-c3ccc(-c4cnc([C@@H]5CCCN5C(=O)c5cnc6ccccc6n5)[nH]4)cc3)cc2)[nH]1 [Compound S-126] | >100
40 | N#Cc1ccccc1C(=O)N1CCC[C@H]1c1ncc(-c2ccc(-c3ccc(-c4cnc([C@@H]5CCCN5C(=O)c5ccccc5C#N)[nH]4)cc3)cc2)[nH]1 [Compound S-127] | <10
